Our source for the melting point values is a melting point compilation (Tetko et al.; mined from patent text by program, amines drawn as free bases though some values may be those of a salt).

The structures appear in SMILES notation. Bounds are passed on as bounds.

`O=[N+]([O-])c1ccc(Cl)nc1-c1ccncc1` registered a melting point of 137 to 138 °C.

The molecule `Nc1sc2c(c1C(=O)c1ccccc1)CCNC2` showed a melting point of 160 to 162 °C.

Consider `CCCC=Cc1c(C(C)C)nc(C(C)C)c(CO)c1-c1ccccc1C`, for which the melting point lay within 76 to 79 °C.

Regarding `Cc1oc2ccccc2c1C(=O)c1ccc(Cl)c(S(N)(=O)=O)c1`, the melting point is 183 °C.

With `CC=C(c1ccccc1)c1c(C)nn(C)c1NC(=O)Nc1ccccc1`, the melting point lay within 173 to 195 °C.

Molecule `CCCn1nc2c(N)nc3ccccc3c2c1CC(C)(C)NC(=O)c1ccc(F)c(F)c1` yielded a melting point of 165 to 166 °C.

Consider `Nc1ccncc1NC(=S)NCCN1CCC(Nc2nc3ccccc3n2Cc2ccc(F)cc2)C1` (configuration not stated), for which the melting point was 225 °C.

As for `Oc1ccccc1-c1nccs1`, the melting point is 215 °C.

`N#Cc1cccc(C2=Nc3cc(O)c(-c4ccc(F)cc4)cc3NC(=O)C2)c1` showed a melting point of over 250 °C.

For `S=C(NC1CCCCC1)N1CCc2[nH]cnc2C1`, the melting point amounted to 183 °C.

Molecule `CC(C)(C#N)c1cc(C=Cc2ccc(OS(N)(=O)=O)cc2)cc(Cn2cncn2)c1` came in with a melting point of 151 to 152 °C.

`O=C(Nc1ccc(O)cc1)C(=O)N1CCC(Cc2ccccc2)CC1` returned a melting point of 167 to 169 °C.

For `CN(C)CC1(c2cccc(C(F)(F)F)c2)CCN(C(=O)CN2CCN(c3ccccc3)CC2)CC1`, the melting point fell in the range of 123 to 124 °C.

`COc1ccc(CC2SC(=O)NC2=O)c2c1N(Cc1ccc(C(=O)Nc3ccc(C(C)C)cc3)cc1)C(=O)CC2` (configuration not stated) registered a melting point of 243 to 244 °C.

Take `CN(CCC(Oc1ccc(C(=O)c2cc3ccccc3s2)cc1)c1ccc(Cl)cc1)CC(=O)O` (configuration not stated): the melting point lay in the range of 101 to 112 °C.

Regarding `C=CC[C@@H]1C(=O)OC[C@@H]1O[Si](C)(C)C(C)(C)C`, the melting point was determined as 48 °C.

For `Cc1cc(C)c(S(=O)(=O)NC(CSc2ccccc2)C(F)(F)F)c(C)c1` (configuration not stated), the melting point was in the range of 76 to 78 °C.

In turn, `Cn1c(Oc2ccc(Cl)c(F)c2)nc2c(-c3cccc(C(=O)O)c3)cccc21` yielded a melting point of 283 to 284 °C.

In turn, `O=C(C[C@@H]1COCCO1)N[C@H]1CC[C@H](CCN2CCN(c3nccc4c3CCO4)CC2)CC1` displayed a melting point of 192 °C.

Regarding `CC(C)(CCl)c1cc(Cl)nnc1Cl`, the melting point was in the range of 66.5 to 68.5 °C.

With `NC(=O)c1nccn1C1Cc2c(cccc2-c2ccccc2)C1=O` (configuration not stated), the melting point was 196 °C.

With `COc1cc(O)ccc1C=CC(=O)CC(C)=O`, the melting point fell in the range of 139 to 142 °C.

`CCCc1nc2c(N)nc3cc(Br)ccc3c2s1`: the melting point lay in the range of 160 to 163 °C.

As to `NC1(C(=O)O)CC(OC(=O)Nc2ccccc2F)C2C(C(=O)O)C21` (configuration not stated), the melting point lay in the range of 232 to 233 °C.

Molecule `CCCCNC(=O)NCCC` registered a melting point of 70 to 72 °C.

Molecule `CC(=O)N1c2ccc(-c3ccc(C#N)cc3)cc2C(Nc2ccc(F)cc2)CC1C` (configuration not stated) displayed a melting point of 140 °C.

Molecule `CC1(C)SCc2ccccc2C1N=CNC#N` (configuration not stated) showed a melting point of 164 to 166 °C.

Regarding `C=CCN1CC(C)N(C(c2cccc(O)c2)c2cc(C(=O)N(CC)CC)cs2)CC1C` (configuration not stated), the melting point was in the range of 108 to 112 °C.

For `COc1ccc2[nH]c(SCc3nccc(N4CCCCC4)c3Cl)nc2c1`, the melting point was in the range of 145 to 147 °C.

In the case of `C#CCN(C(=O)c1ccco1)c1c(C)cccc1C`, the melting point worked out at 113 °C.

Turning to `Cc1ncc2cc(-c3c(Cl)cccc3Cl)c(NC(=O)c3ccco3)nc2n1`, the melting point was in the range of 228 to 230 °C.

`CC(=O)Oc1cc([N+](=O)[O-])cc([N+](=O)[O-])c1OC(C)=O` gave a melting point of 115 to 117 °C.

`CC(CCN1CCCCC1)CC(=O)NNC(=O)N1Cc2ccccc2Oc2ccc(Cl)cc21` (configuration not stated) had a melting point of 108 to 111 °C.

Turning to `Cn1cc(C(=O)NCc2ccc(Cl)cc2)c(=O)c2cc(CN3CCOCC3)cc(C#CCn3ccnc3)c21`, the melting point lay within 178 to 180 °C.

The molecule `Cc1cc(=O)n(CCCN2CCC(c3c[nH]c4ccccc34)CC2)c2ccccc12` registered a melting point of 74 to 77 °C.

Take `COC(=O)CCC(=O)OCc1cc(CCCCCOc2c(Cl)cc(C3=NCCO3)cc2Cl)on1`: the melting point fell in the range of 39 to 41 °C.

In turn, `ON=Cc1ccccc1-c1ccc2c(c1C=NO)OCO2` had a melting point of 227 to 229 °C.

`C=C(CC(=O)Nc1cc(Cl)cc(Cl)c1)C(=O)OCCCCCC` gave a melting point of 60 °C.

`CCCCCC(=O)C=CI` yielded a melting point of 35 to 37 °C.

As for `Cn1nnnc1SCCCC(=O)c1ccccc1`, the melting point fell in the range of 57.5 to 58 °C.

For the molecule `N#Cc1c(Cl)c(Cl)n(O)c1-c1ccc(Cl)cc1`, the melting point is 156 °C.

In turn, `Cn1cc(Br)cc(Nc2ccc(N3CCN(CCF)CC3)cn2)c1=O` came in with a melting point of 141 to 143 °C.

On to `NC(=O)c1cc(-c2ccnc(Nc3cccc(C(F)(F)F)c3)n2)ccn1`, for which the melting point was in the range of 240 to 242 °C.

For the molecule `CCN(CC)c1ccc(C(=O)NCCNC(=O)c2ccc(N(CC)CC)cc2)cc1`, the melting point lay within 166 to 167 °C.

`CCOC(=O)c1cnc2c(F)c(F)ccc2c1` registered a melting point of 118 °C.

Regarding `CCOCc1nc2c(N)nc(C)c(C)c2n1CCNC(=O)C(C)C`, the melting point fell in the range of 172 to 174 °C.

In turn, `COc1cc(Nc2nccc(Nc3ccc(O)cc3)n2)cc(OC)c1OC` yielded a melting point of 112 to 115 °C.

Regarding `COc1ccc(C=O)cc1OC(=O)c1ccccc1`, the melting point lay within 70 to 72 °C.

Regarding `NC(=O)Cc1nn(-c2ccccn2)c2[nH]c3ccccc3c(=O)c12`, the melting point was 302 to 305 °C.

Turning to `CC(CC(C)C1CCC2C3C(O)CC4CC(O)CCC4(C)C3CC(O)C12C)C(=O)O` (configuration not stated), the melting point lay within 151 to 153 °C.

The molecule `Cc1cc2cc(CN3CCCCCC3)cnc2cc1NC(=O)c1ccc(-c2ccc(Cl)cc2)cc1F` registered a melting point of 209 °C.

`COc1cc(-c2cc(C3CCOC3)no2)cc2oc(=O)c(C)c(C)c12` (configuration not stated) came in with a melting point of 122 °C.

Take `O=C(Oc1ccccc1)c1cc2cccc(O)c2[nH]1`: the melting point is 156 to 157 °C.

`Clc1ccc(-c2nnc(CSCCOc3ccccc3)o2)cn1` came in with a melting point of 113 to 115 °C.

For the molecule `CC(C)(C)OC(=O)NCC(=O)Nc1cccc(I)c1`, the melting point fell in the range of 126 to 128 °C.

`CCN(CC)C(=O)c1nc(-c2ccccc2)nc2ccccc12`: the melting point stood at 127 °C.

Take `CC(=O)NCC1CC(c2cc(F)c(-n3ccnc3)c(F)c2)=NO1` (single isomer, unassigned; (-)): the melting point lay within 168 to 169 °C.

Regarding `CCOC(=O)c1ccc(CCN2CCN(C(=O)Cc3ccc(Cl)cc3)CC2)cc1`, the melting point lay within 88 to 89 °C.

`O=C(NC(=O)c1ccccc1Cl)Nc1ccc(Cl)c(C(F)(F)F)c1` showed a melting point of 164 °C.

`Cc1nc2c(N)nc3ccccc3c2n1CCOCCN` returned a melting point of 155 to 157 °C.

`COc1nc2ccccc2cc1NC(=O)N1CCN(c2cc(F)cc(F)c2)CC1` had a melting point of 158 to 159 °C.

Molecule `Cc1cc(-c2nnc3c4ccccc4c(OCc4cn(C)cn4)nn23)no1` showed a melting point of 208 to 209 °C.

On to `CC(C)[C@H](NC(=O)OCc1ccccn1)C(=O)N[C@@H](Cc1ccccc1)[C@@H](O)[C@H](O)[C@H](Cc1ccccc1)NC(=O)[C@@H](NC(=O)OCc1ccccn1)C(C)C`, for which the melting point lay within 220 to 223 °C.

In turn, `O=C(O)C(Cl)=C(Cl)C(=O)c1ccccc1` gave a melting point of 228 °C.

`Cc1noc(NS(=O)(=O)c2ccccc2-c2ccc(-c3ncco3)cc2Cc2ncc(-c3ccccc3)o2)c1C`: the melting point lay within 120 to 128 °C.

`Clc1ccc(Nc2ccnc(-c3cccc(Cl)n3)n2)cc1` yielded a melting point of 174 to 176 °C.

Turning to `CCN(CC)c1ccc(-c2cc(-c3ccc(C(=O)O)cc3)ccc2OCCCO)cc1C`, the melting point was 208 °C.

The molecule `CCc1ccc(Nc2nc3cc(NC(=O)c4ccc([N+](=O)[O-])cc4Cl)ccc3o2)cc1` registered a melting point of over 250 °C.

Consider `CC(C)(C)NC(=O)C(=O)C(C)(C)C`, for which the melting point was 65 °C.

`CS(=O)(=O)OCC(c1ccccc1)c1ccccc1` had a melting point of 101 to 102 °C.

The molecule `O=C1c2ccccc2C(=O)N1CCCn1cc(S(=O)(=O)c2ccccc2)c2ccccc21` gave a melting point of 205 to 206 °C.

`Cc1ncc(C(=O)N2CC2C#N)s1` (configuration not stated) gave a melting point of 90 to 92 °C.

Turning to `CC(Oc1ccc(Oc2ccc3ccc(Br)cc3n2)cc1)C(=O)NCC(=O)O` (configuration not stated), the melting point lay in the range of 157 to 159 °C.

Consider `Cc1c(-c2ccc(OC(F)(F)F)cc2)[nH]c2ccc(OCc3ccccc3)cc12`, for which the melting point lay in the range of 127 to 128 °C.

Regarding `CCN(CC)c1c(Cl)cc(-n2c(C(F)(F)F)nn(C)c2=S)cc1Cl`, the melting point lay in the range of 128 to 130 °C.

Molecule `CC1(C)CCC(C)(C)c2cc(CCCC(=O)O)ccc21` came in with a melting point of 99 °C.

In the case of `COC(=O)c1cc(-n2cnc(Br)c2)c(C(F)(F)F)cc1N`, the melting point was in the range of 163 to 165 °C.

The molecule `O=C([C@H]1CN(Cc2ccccc2)CCN1C(=O)NC1CCCCC1)N(CCCn1ccnc1)Cc1ccccc1` gave a melting point of 89.1 °C.

As to `Nc1ncnc2c1nnn2C1C=CCC1` (configuration not stated), the melting point was 207 to 208 °C.

The molecule `CCn1cc(C(=O)O)c(=O)c2cc(F)c(N3CCN(Cc4ccc([N+](=O)[O-])cc4)CC3)c(F)c21` had a melting point of 241 to 242 °C.

Molecule `COc1cc2cc(CO)c(CO)c(-c3ccnc(Nc4ccccc4C(CO)CCO)c3)c2cc1OC` (configuration not stated) showed a melting point of 204 to 207 °C.

`CCCCCCCCC1=C(Cl)C(=O)c2ccccc2C1=O`: the melting point was 69 to 70 °C.

`CCCCCCCCCCCCCCCCOCC(CO)COC(c1ccccc1)(c1ccccc1)c1ccccc1` (configuration not stated) displayed a melting point of 38 °C.

In turn, `CC1CN(c2nnc(N3CC(C)OC(C)C3)c3cc(-c4ccccc4)ncc23)CC(C)O1` (configuration not stated) gave a melting point of 248 to 250 °C.

For `O=C1c2ccccc2CCn2cc(SC(F)(F)F)cc21`, the melting point was 77 to 78 °C.

The molecule `Cc1ccc(-c2nnc(Cl)nc2-c2ccc(C)cc2)cc1` returned a melting point of 126 to 130 °C.

Consider `CC(C)Cc1[nH]nc2c(N)nc3ccccc3c12`, for which the melting point fell in the range of 248 to 249 °C.
